Results as given in ChEMBL document CHEMBL1201862, “PubChem BioAssay data set” (2004).
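Step 1: Grow cells in 96-well plates. Step 2: Expose to compound for 48 hours at 5 concentrations. Step 3: Interpolate endpoints linearly; if unreached, use highest concentration. GI50 marks 50% less growth.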 The source made the active and inactive calls. Rule as the data show it: active = GI50 up to about 1.1 µM and inactive = higher.

What was measured:
Assay in all cases: NCI anticancer screen, dose series, 48 h
[1] = test system: 786-0
[2] = test system: A498
[3] = test system: A549
[4] = test system: ACHN
[5] = test system: CAKI-1
[6] = test system: CCRF-CEM
[7] = test system: COLO 205
[8] = test system: DU-145
[9] = test system: EKVX
[10] = test system: HCC 2998
[11] = test system: HCT-116
[12] = test system: HCT-15
[13] = test system: HL-60
[14] = test system: HOP-62
[15] = test system: HOP-92
[16] = test system: HT-29
[17] = test system: Hs-578T
[18] = test system: IGROV-1
[19] = test system: K562
[20] = test system: KM12
[21] = test system: LOX IMVI
[22] = test system: M14
[23] = test system: MCF7
[24] = test system: MDA-MB-231
[25] = test system: MDA-MB-435
[26] = test system: MDA-N
[27] = test system: MOLT-4
[28] = test system: Malme-3M
[29] = test system: NCI-H226
[30] = test system: NCI-H23
[31] = test system: NCI-H460
[32] = test system: NCI-H522
[33] = test system: NCI/ADR-RES
[34] = test system: OVCAR-3
[35] = test system: OVCAR-4
[36] = test system: OVCAR-5
[37] = test system: OVCAR-8
[38] = test system: PC-3
[39] = test system: RPMI-8226
[40] = test system: RXF 393
[41] = test system: SF-268
[42] = test system: SF-295
[43] = test system: SF-539
[44] = test system: SK-MEL-28
[45] = test system: SK-MEL-2
[46] = test system: SK-MEL-5
[47] = test system: SK-OV-3
[48] = test system: SN12C
[49] = test system: SNB-19
[50] = test system: SNB-75
[51] = test system: SR
[52] = test system: SW-620
[53] = test system: T47D
[54] = test system: TK-10
[55] = test system: U-251
[56] = test system: UACC-257
[57] = test system: UO-31
[58] = test system: UACC-62

Measured: GI50

OC1c2ccccc2CC12Cc1ccccc1C2 (centres undefined)
inactive: [1] > 100 µM | [2] > 100 µM | [3] 99.5 µM | [4] > 100 µM | [5] > 100 µM | [6] > 100 µM | [7] 31.2 µM | [8] > 100 µM | [9] > 100 µM | [10] > 100 µM | [11] 79.4 µM | [13] 74.1 µM | [14] > 100 µM | [15] 64 µM | [16] 86.7 µM | [17] > 100 µM | [18] > 100 µM | [19] 72.4 µM | [20] > 100 µM | [21] > 100 µM | [22] > 100 µM | [23] > 100 µM | [24] > 100 µM | [25] > 100 µM | [26] > 100 µM | [27] 24.5 µM | [28] 92.9 µM | [30] > 100 µM | [31] > 100 µM | [32] 62.5 µM | [33] 54.7 µM | [34] 90.2 µM | [35] > 100 µM | [36] > 100 µM | [37] > 100 µM | [38] > 100 µM | [39] 48.2 µM | [40] 48.3 µM | [41] > 100 µM | [42] > 100 µM | [43] > 100 µM | [44] > 100 µM | [45] > 100 µM | [46] 22.6 µM | [47] > 100 µM | [48] 78.9 µM | [49] > 100 µM | [50] 61.4 µM | [51] 38.5 µM | [52] > 100 µM | [53] > 100 µM | [54] > 100 µM | [55] > 100 µM | [56] 44.9 µM | [57] 94.2 µM
active: [29] 0.35 µM
> 100 µM: [12]

CC1=C/C(=N\N(C)C)C(C(O)(C(F)(F)F)C(F)(F)F)C(C)(C)C1 (centres undefined)
> 100 µM: [12]
inactive: [1] > 100 µM | [2] > 100 µM | [3] > 100 µM | [4] > 100 µM | [5] > 100 µM | [6] > 100 µM | [7] > 100 µM | [8] > 100 µM | [9] > 100 µM | [10] > 100 µM | [11] > 100 µM | [13] > 100 µM | [14] > 100 µM | [16] > 100 µM | [17] 72.4 µM | [18] > 100 µM | [19] > 100 µM | [20] > 100 µM | [21] > 100 µM | [22] > 100 µM | [23] > 100 µM | [24] > 100 µM | [25] > 100 µM | [26] > 100 µM | [27] 97.1 µM | [28] 97.1 µM | [29] > 100 µM | [30] 69.7 µM | [31] > 100 µM | [32] > 100 µM | [33] > 100 µM | [34] 26.4 µM | [35] > 100 µM | [36] > 100 µM | [37] > 100 µM | [38] 73.6 µM | [39] 46.8 µM | [40] > 100 µM | [41] > 100 µM | [42] > 100 µM | [43] > 100 µM | [44] > 100 µM | [45] > 100 µM | [46] 80.2 µM | [48] > 100 µM | [49] > 100 µM | [50] 27.1 µM | [51] > 100 µM | [52] > 100 µM | [53] > 100 µM | [54] > 100 µM | [55] > 100 µM | [56] > 100 µM | [58] > 100 µM | [57] > 100 µM
active: [15] 0.169 µM
